Test results taken from paper PMC7226860 (ACS Omega, 2020).
≈ marks a conversion by molar mass, not a printed value.

How the values were obtained:
[1] = system: K. pneumonia (ATCC: 4415); assay: Agar well diffusion, inhibition zone; format: cell-based, Klebsiella pneumonia; details: Klebsiella pneumoniae, read-out: diameter of the inhibition zone, K. pneumonia (ATCC: 4415), Gram (−ve), 15 mg/mL, mean ± SD
[2] = system: P. aeruginosa (ATCC: 27853); assay: MIC, twofold serial dilution; format: cell-based; details: Pseudomonas aeruginosa, 24 h
[3] = system: K. pneumonia (ATCC: 4415); assay: MIC, twofold serial dilution; format: cell-based; details: Klebsiella pneumoniae, 24 h, read after 24 h
[4] = system: P. aeruginosa (ATCC: 27853); assay: Agar well diffusion, inhibition zone; format: cell-based, Pseudomonas aeruginosa; details: for zone of inhibition at 15000 µg/mL: Pseudomonas aeruginosa, read-out: diameter of the inhibition zone; for diameter of the inhibition zone: P. aeruginosa (ATCC: 27853), Gram (−ve), agar well diffusion, 15 mg/mL, mean ± SD
E. coli (ATCC: 3008) [5] = assay: MIC, twofold serial dilution; format: cell-based; details: Escherichia coli, 24 h
E. coli (ATCC: 3008) [6] = assay: Agar well diffusion, inhibition zone; format: cell-based, Escherichia coli; details: for zone of inhibition at 15000 µg/mL: Escherichia coli, read-out: diameter of the inhibition zone; for diameter of the inhibition zone: E. coli (ATCC: 3008), Gram (−ve), agar well diffusion, 15 mg/mL, mean ± SD
S. mutans (ATCC: 25175) [7] = assay: MIC, twofold serial dilution; format: cell-based; details: Streptococcus mutans, 24 h
[8] = system: C. albicans (ATCC: 10231); assay: Agar well diffusion, inhibition zone; format: cell-based, Candida albicans; details: for diameter of the inhibition zone: C. albicans (ATCC: 10231), fungi, 15 mg/mL, mean ± SD; for zone of inhibition at 15000 µg/mL: Candida albicans, read-out: diameter of the inhibition zone, C. albicans (ATCC: 10231), fungi, 15 mg/mL, mean ± SD
[9] = system: C. albicans (ATCC: 10231); assay: MIC, twofold serial dilution; format: cell-based, Candida albicans
S. mutans (ATCC: 25175) [10] = assay: Agar well diffusion, inhibition zone; format: cell-based, Streptococcus mutans; details: for zone of inhibition at 15000 µg/mL: Streptococcus mutans, read-out: diameter of the inhibition zone; for diameter of the inhibition zone: S. mutans (ATCC: 25175), Gram (+ve), agar well diffusion, 15 mg/mL, mean ± SD
S. aureus (ATCC: 6538) [11] = assay: Agar well diffusion, inhibition zone; format: cell-based, Staphylococcus aureus; details: for zone of inhibition at 15000 µg/mL: Staphylococcus aureus, read-out: diameter of the inhibition zone
human DHFR = molecular target: T1, human DHFR (Homo sapiens, UniProt P00374); assay: DHFR inhibitor screening kit; format: biochemical; details: for inhibition at 0.01 µg/mL / inhibition at 0.1 µg/mL / inhibition at 1 µg/mL / inhibition at 10 µg/mL: read-out: Inhibition of DHFR enzyme
T1 sequence (P00374 1-187): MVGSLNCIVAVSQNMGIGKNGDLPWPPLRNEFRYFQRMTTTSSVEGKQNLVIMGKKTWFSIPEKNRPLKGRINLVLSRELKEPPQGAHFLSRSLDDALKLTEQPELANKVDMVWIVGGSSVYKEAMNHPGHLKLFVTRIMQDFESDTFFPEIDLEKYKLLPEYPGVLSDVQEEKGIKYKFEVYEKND

[12] = system: HFB4 human dermal fibroblast cell line; assay: MTT cytotoxicity assay; format: cell-based; details: 48 h
S. aureus (ATCC: 6538) [13] = assay: MIC, twofold serial dilution; format: cell-based; details: Staphylococcus aureus, 24 h

| MIC [3] [µg/mL] | MIC (E. coli (ATCC: 3008) [5]) [µg/mL] | MIC (S. mutans (ATCC: 25175) [7]) [µg/mL] | IC50 (human DHFR) [nM] | inhibition at 0.01 µg/mL (human DHFR) [%] | inhibition at 0.1 µg/mL (human DHFR) [%] | inhibition at 1 µg/mL (human DHFR) [%] | inhibition at 10 µg/mL (human DHFR) [%] | MIC (S. aureus (ATCC: 6538) [13]) [µg/mL] | SMILES | zone of inhibition at 15000 µg/mL [1] [mm] | zone of inhibition at 15000 µg/mL (E. coli (ATCC: 3008) [6]) [mm] | diameter of the inhibition zone [8] | zone of inhibition at 15000 µg/mL (S. mutans (ATCC: 25175) [10]) [mm] | diameter of the inhibition zone [4] | IC50 [12] [µg/mL] | zone of inhibition at 15000 µg/mL (S. aureus (ATCC: 6538) [11]) [mm] | other results |
| --- | --- | --- | --- | --- | --- | --- | --- | --- | --- | --- | --- | --- | --- | --- | --- | --- | --- |
| 62.5 (≈ 131 µM) | 31.2 (≈ 65.4 µM) |  |  |  |  |  |  |  | CNC(C)C1CCC(N)C(OC2C(N)CC(N)C(OC3OCC(C)(O)C(NC)C3O)C2O)O1 (stereo not drawn) [Gentamicin, reference compound] | 32 ± 0.1 | 25 ± 0.1 |  |  |  |  |  | MIC [2]: 125 µg/mL (≈ 262 µM); zone of inhibition at 15000 µg/mL [4]: 35 ± 0.1 mm |
| 1000 (≈ 2130 µM) | 62.5 (≈ 133 µM) | 1000 (≈ 2130 µM) | 554 | 30 | 41.8 | 57.3 | 75.9 |  | CSc1c(C#N)c(N)n(NS(=O)(=O)c2ccccc2)c(=O)c1-c1nc2ccccc2s1 [compound 5a, N-(6-Amino-3-(benzo[d]thiazol-2-yl)-5-cyano-4-(methylthio)-2-oxopyridin-1(2H)-yl)benzenesulfonamide] | 20.6 ± 1 | 26 ± 0.5 | 21.0 ± 1.0 mm | 17.6 ± 1.5 | − | 167 ± 21.8 (≈ 356 µM) |  | zone of inhibition at 15000 µg/mL [8]: 21 to 28 mm; MIC ([9]; Candida albicans, 24 h): 62.5 µg/mL (≈ 133 µM); diameter of the inhibition zone (S. aureus (ATCC: 6538) [11]; S. aureus (ATCC: 6538), Gram (+ve), agar well diffusion, 15 mg/mL, mean ± SD): − |
| 125 (≈ 276 µM) | 31.2 (≈ 68.9 µM) | 1000 (≈ 2210 µM) | 441 | 29.6 | 44.1 | 67 | 71.8 | 31.2 (≈ 68.9 µM) | Nc1n[nH]c2c(-c3nc4ccccc4s3)c(=O)n(NS(=O)(=O)c3ccccc3)c(N)c12 [compound 11a, N-(3,4-Diamino-7-(benzo[d]thiazol-2-yl)-6-oxo-1H-pyrazolo[4,3-c]pyridin-5(6H)-yl)benzenesulfonamide] | 15.2 ± 0.5 | 26 ± 0.5 | 21.0 ± 1.7 mm | 22.3 ± 0.5 | − | 234 ± 20.7 (≈ 515 µM) | 35.2 ± 1.5 | zone of inhibition at 15000 µg/mL [8]: 21 to 28 mm; MIC ([9]; Candida albicans, 24 h): 125 µg/mL (≈ 276 µM) |
| 250 (≈ 999 µM) | 250 (≈ 999 µM) | 125 (≈ 499 µM) |  |  |  |  |  | 500 (≈ 2000 µM) | Nc1ccc(S(=O)(=O)Nc2ncccn2)cc1 [SD, sulfadiazine, reference compound] | 20.4 ± 0.9 | 19.8 ± 0.4 | no activity | 16.3 ± 1.1 |  | 243 ± 46.1 (≈ 969 µM) | 31.2 ± 2.1 | MIC [2]: 250 µg/mL (≈ 999 µM); zone of inhibition at 15000 µg/mL [4]: 24 ± 1.4 mm |
| 125 (≈ 267 µM) | 31.2 (≈ 66.8 µM) | 500 (≈ 1070 µM) | 11800 | 12.4 | 19.3 | 31.2 | 60.1 | 500 (≈ 1070 µM) | Cc1ccc(S(=O)(=O)Nn2c(N)c3c(N)n[nH]c3c(-c3nc4ccccc4s3)c2=O)cc1 [compound 11b, N-(3,4-Diamino-7-(benzo[d]thiazol-2-yl)-6-oxo-1H-pyrazolo[4,3-c]pyridin-5(6H)-yl)-4-methylbenzenesulfonamide] | 17.5 ± 0.5 | 26 ± 1 | no potency and − | 21 ± 1 | − | 295 ± 19.1 (≈ 631 µM) | 25.2 ± 1 | diameter of the inhibition zone (E. coli (ATCC: 3008) [6]): 26.0 ± 1.0 mm |
|  |  |  |  |  |  |  |  |  | C[C@@H]1[C@H](O)[C@@H](C)/C=C/C=C/CC/C=C/C=C/C=C/C=C/C(O[C@H]2O[C@H](C)[C@@H](O)[C@H](N)[C@@H]2O)CC2O[C@](O)(CC(O)C(O)CCC(O)CC(O)CC(O)CC(=O)O[C@H]1C)CC(O)C2C(=O)O (stereo partly drawn) [Nystatin, reference compound] |  |  | 28.0 ± 0.1 mm |  |  |  |  | MIC ([9]; C. albicans (ATCC: 10231), read after 24 h): 31.25 µg/mL (≈ 33.7 µM) |
|  | 250 (≈ 692 µM) | 1000 (≈ 2770 µM) | 1020 | 17.9 | 33.4 | 60.9 | 81.5 | 1000 (≈ 2770 µM) | Cc1ccc(S(=O)(=O)NNC(=O)Cc2nc3ccccc3s2)cc1 [compound 3b, N′-(2-(Benzo[d]thiazol-2-yl)acetyl)-4-methylbenzenesulfonohydrazide] | 32 ± 2 | 17.3 ± 2.5 | − | 10.6 ± 0.5 | − | 165 ± 3.04 (≈ 456 µM) | 17.6 ± 2.5 |  |
|  |  | 62.5 (≈ 179 µM) |  |  |  |  |  | 62.5 (≈ 179 µM) | CC1(C)S[C@@H]2[C@H](NC(=O)[C@H](N)c3ccccc3)C(=O)N2[C@H]1C(=O)O [Ampicillin, reference compound] |  |  |  | 22 ± 0.5 |  |  | 32 ± 0.5 |  |
|  |  |  |  |  |  |  |  |  | CSc1c(C#N)c(O)n(NS(=O)(=O)c2ccccc2)c(=O)c1-c1nc2ccccc2s1 [compound 5c, N-(3-(Benzo[d]thiazol-2-yl)-5-cyano-6-hydroxy-4-(methylthio)-2-oxopyridin-1(2H)-yl)benzenesulfonamide] | 27.3 ± 1.5 | 23.3 ± 1.5 | − |  | − |  | 17.6 ± 1.5 | diameter of the inhibition zone (S. mutans (ATCC: 25175) [10]): − |
| 1000 (≈ 2070 µM) | 125 (≈ 258 µM) | 1000 (≈ 2070 µM) | 620 | 19.8 | 37.4 | 65 | 79.4 | 250 (≈ 517 µM) | CSc1c(C#N)c(N)n(NS(=O)(=O)c2ccc(C)cc2)c(=O)c1-c1nc2ccccc2s1 [compound 5b, N-(6-Amino-3-(benzo[d]thiazol-2-yl)-5-cyano-4-(methylthio)-2-oxopyridin-1(2H)-yl)-4-methylbenzenesulfonamide] | 25.6 ± 1.1 | 21.3 ± 3 | − | 18.6 ± 1 |  | 146 ± 27 (≈ 301 µM) | 30.3 ± 0.5 | MIC [2]: 1000 µg/mL (≈ 2070 µM); zone of inhibition at 15000 µg/mL [4]: 23.3 ± 0.5 mm |
|  |  |  |  |  |  |  |  |  | CSc1c(C#N)c(O)n(NS(=O)(=O)c2ccc(C)cc2)c(=O)c1-c1nc2ccccc2s1 [compound 5d, N-(3-(Benzo[d]thiazol-2-yl)-5-cyano-6-hydroxy-4-(methylthio)-2-oxopyridin-1(2H)-yl)-4-methylbenzenesulfonamide] | 18.2 ± 0.5 |  | − |  | − |  | 17.5 ± 2 | diameter of the inhibition zone (S. mutans (ATCC: 25175) [10]): −; diameter of the inhibition zone (E. coli (ATCC: 3008) [6]): − |
